{
  "source": "paper PMC5047057",
  "about": "(Oral oncology, 2016)",
  "key": {"[1]": {"assay": "clinical", "design": "species or system human", "conditions": "in vivo; for Tmax / AUC(0-t) / Cmax: human, po; for AUC(0-t): AUC0-24h"}, "[2]": {"system": "patients with recurrent/metastatic head and neck squamous cell carcinoma (HNSCC)"}, "[3]": {"system": "Rb-positive cell lines", "conditions": "cited from earlier work"}, "[4]": {"system": "Rb-negative tumor xenografts", "conditions": "cited from earlier work"}, "[5]": {"system": "patients with Rb-positive cancers", "conditions": "cited from earlier work"}, "[6]": {"conditions": "Palbociclib 125 mg (n=6 pts) with weekly cetuximab, all cycles"}},
  "data": [
    {"smiles": "CC(=O)c1c(C)c2cnc(Nc3ccc(N4CCNCC4)cn3)nc2n(C2CCCC2)c1=O", "note": "[palbociclib]", "values": [
      {"measurement": "Tmax", "setting": "[1]; 100 mg", "result": 8, "unit": "h"},
      {"measurement": "AUC(0-t)", "setting": "[1]; 100 mg", "result": 1480, "unit": "ng·h/mL"},
      {"measurement": "Cmax", "setting": "[1]; 100 mg", "result": 70, "unit": "ng/mL"},
      {"measurement": "Tmax", "setting": "[1]; 100 mg, Tmax", "result": 8, "unit": "h"},
      {"measurement": "AUC(0-t)", "setting": "[1]; 125 mg", "result": 2230, "unit": "ng·h/mL"},
      {"measurement": "Cmax", "setting": "[1]; 125 mg", "result": 145, "unit": "ng/mL"},
      {"measurement": "Tmax", "setting": "[1]; 125 mg, Tmax", "result": 8, "unit": "h"},
      {"measurement": "Dose-normalized Cmax and AUC0-24h, 100 vs 125 mg daily oral doses", "setting": "[1]", "result": "comparable"},
      {"measurement": "Acneiform Rash, Grade 3 (number of patients)", "setting": "[2]; [6]", "result": 0},
      {"measurement": "Acneiform Rash, Grades 1-2 (number of patients)", "setting": "[2]; [6]", "result": 5},
      {"measurement": "Anemia, Grade 3 (number of patients)", "setting": "[2]; [6]", "result": 0},
      {"measurement": "Anemia, Grades 1-2 (number of patients)", "setting": "[2]; [6]", "result": 6},
      {"measurement": "Diarrhea, Grade 3 (number of patients)", "setting": "[2]; [6]", "result": 0},
      {"measurement": "Diarrhea, Grades 1-2 (number of patients)", "setting": "[2]; [6]", "result": 1},
      {"measurement": "Fatigue, Grade 3 (number of patients)", "setting": "[2]; [6]", "result": 0},
      {"measurement": "Fatigue, Grades 1-2 (number of patients)", "setting": "[2]; [6]", "result": 3},
      {"measurement": "Hypomagnesemia, Grade 3 (number of patients)", "setting": "[2]; [6]", "result": 0},
      {"measurement": "Hypomagnesemia, Grades 1-2 (number of patients)", "setting": "[2]; [6]", "result": 2},
      {"measurement": "Infusion Reaction, Grade 3 (number of patients)", "setting": "[2]; [6]", "result": 0},
      {"measurement": "Infusion Reaction, Grades 1-2 (number of patients)", "setting": "[2]; [6]", "result": 1},
      {"measurement": "Nausea, Grade 3 (number of patients)", "setting": "[2]; [6]", "result": 0},
      {"measurement": "Nausea, Grades 1-2 (number of patients)", "setting": "[2]; [6]", "result": 2},
      {"measurement": "Neutropenia, Grade 3 (number of patients)", "setting": "[2]; [6]", "result": 2},
      {"measurement": "Neutropenia, Grades 1-2 (number of patients)", "setting": "[2]; [6]", "result": 2},
      {"measurement": "Thrombocytopenia, Grade 3 (number of patients)", "setting": "[2]; [6]", "result": 0},
      {"measurement": "Thrombocytopenia, Grades 1-2 (number of patients)", "setting": "[2]; [6]", "result": 3},
      {"measurement": "Vomiting, Grade 3 (number of patients)", "setting": "[2]; [6]", "result": 0},
      {"measurement": "Vomiting, Grades 1-2 (number of patients)", "setting": "[2]; [6]", "result": 1},
      {"measurement": "Palbociclib dose recommended for phase II trials", "setting": "[2]; days 1-21 of a 28 day cycle with standard doses of weekly cetuximab", "result": 125, "unit": "mg/day"},
      {"measurement": "Intra-patient dose reductions", "setting": "[2]; in vivo", "result": "did not occur"},
      {"measurement": "Most common AE", "setting": "[2]; in vivo", "result": "Myelosuppression"},
      {"measurement": "Maximum tolerated dose (MTD)", "setting": "[2]; palbociclib up to 125 mg/day days 1-21 of 28 with standard weekly cetuximab", "result": "not reached"},
      {"measurement": "Anti-proliferative effects", "setting": "[3]", "result": "potent anti-proliferative effects"},
      {"measurement": "Activity in xenografts", "setting": "[4]", "result": "no activity"},
      {"measurement": "Systemic exposure versus dose", "setting": "[5]; dose range of 25-150 mg", "result": "dose proportionality"},
      {"measurement": "Maximum tolerated dose (MTD)", "setting": "[5]; once daily, administered for 21 days of each 28 day cycle, monotherapy", "result": 125, "unit": "mg"},
      {"measurement": "Dose-limiting toxicity (DLT)", "setting": "[5]; palbociclib monotherapy phase I trials", "result": "neutropenia"}
    ]}
  ]
}
